These results are taken from ChEMBL document CHEMBL1909046, “DrugMatrix in vitro pharmacology data”.

Test [1] deals with T1, 5-hydroxytryptamine receptor 2C (Homo sapiens, UniProt P28335).
T1 sequence (P28335 whole entry): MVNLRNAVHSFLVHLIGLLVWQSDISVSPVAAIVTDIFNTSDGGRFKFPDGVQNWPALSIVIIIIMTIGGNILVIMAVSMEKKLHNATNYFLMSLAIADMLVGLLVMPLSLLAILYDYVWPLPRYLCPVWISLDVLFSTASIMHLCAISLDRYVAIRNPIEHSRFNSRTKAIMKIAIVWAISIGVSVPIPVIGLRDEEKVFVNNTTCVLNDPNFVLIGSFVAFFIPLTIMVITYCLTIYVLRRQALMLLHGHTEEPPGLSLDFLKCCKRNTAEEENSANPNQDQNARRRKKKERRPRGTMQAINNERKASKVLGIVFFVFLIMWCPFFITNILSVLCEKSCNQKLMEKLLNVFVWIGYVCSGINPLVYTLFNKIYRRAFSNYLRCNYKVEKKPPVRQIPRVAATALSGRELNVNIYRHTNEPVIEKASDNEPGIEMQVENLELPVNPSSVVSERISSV
The test can be described thus: DRUGMATRIX: Serotonin (5-Hydroxytryptamine) 5-HT2C radioligand binding (ligand: [3H] Mesulergine). As to conditions: cho-k1; Not Active = under 50% inhibition at 10 µM. In kind it is cell membranes, CHO-K1, Membrane.

A short description of test [2]: DRUGMATRIX: Glutamate, AMPA radioligand binding (ligand: [3H] AMPA). In kind it is cell membranes, Rattus norvegicus, Wistar, Cerebral cortex, Membrane. As to conditions: Not Active = under 50% inhibition at 10 µM.
Test [3] in a line: DRUGMATRIX: Phosphodiesterase PDE4 enzyme inhibition (substrate: [3H]cAMP + cAMP). To be noted: u-937; Not Active = under 50% inhibition at 10 µM.
Test [4] in a line: DRUGMATRIX: beta-Lactamase enzyme inhibition (substrate: Nitrocefin). Further details: species or system Bacillus cereus. As to conditions: Not Active = under 50% inhibition at 10 µM.
In test [5] the target is Sigma non-opioid intracellular receptor 1 (Homo sapiens, UniProt Q99720). Briefly: DRUGMATRIX: Sigma1 radioligand binding (ligand: [3H] Haloperidol). To be noted: jurkat; Not Active = under 50% inhibition at 10 µM. In kind it is cell membranes, Jurkat, Membrane.
Test [6] addresses T2, Nitric oxide synthase, inducible (Mus musculus, UniProt P29477).
T2 sequence (P29477 whole entry): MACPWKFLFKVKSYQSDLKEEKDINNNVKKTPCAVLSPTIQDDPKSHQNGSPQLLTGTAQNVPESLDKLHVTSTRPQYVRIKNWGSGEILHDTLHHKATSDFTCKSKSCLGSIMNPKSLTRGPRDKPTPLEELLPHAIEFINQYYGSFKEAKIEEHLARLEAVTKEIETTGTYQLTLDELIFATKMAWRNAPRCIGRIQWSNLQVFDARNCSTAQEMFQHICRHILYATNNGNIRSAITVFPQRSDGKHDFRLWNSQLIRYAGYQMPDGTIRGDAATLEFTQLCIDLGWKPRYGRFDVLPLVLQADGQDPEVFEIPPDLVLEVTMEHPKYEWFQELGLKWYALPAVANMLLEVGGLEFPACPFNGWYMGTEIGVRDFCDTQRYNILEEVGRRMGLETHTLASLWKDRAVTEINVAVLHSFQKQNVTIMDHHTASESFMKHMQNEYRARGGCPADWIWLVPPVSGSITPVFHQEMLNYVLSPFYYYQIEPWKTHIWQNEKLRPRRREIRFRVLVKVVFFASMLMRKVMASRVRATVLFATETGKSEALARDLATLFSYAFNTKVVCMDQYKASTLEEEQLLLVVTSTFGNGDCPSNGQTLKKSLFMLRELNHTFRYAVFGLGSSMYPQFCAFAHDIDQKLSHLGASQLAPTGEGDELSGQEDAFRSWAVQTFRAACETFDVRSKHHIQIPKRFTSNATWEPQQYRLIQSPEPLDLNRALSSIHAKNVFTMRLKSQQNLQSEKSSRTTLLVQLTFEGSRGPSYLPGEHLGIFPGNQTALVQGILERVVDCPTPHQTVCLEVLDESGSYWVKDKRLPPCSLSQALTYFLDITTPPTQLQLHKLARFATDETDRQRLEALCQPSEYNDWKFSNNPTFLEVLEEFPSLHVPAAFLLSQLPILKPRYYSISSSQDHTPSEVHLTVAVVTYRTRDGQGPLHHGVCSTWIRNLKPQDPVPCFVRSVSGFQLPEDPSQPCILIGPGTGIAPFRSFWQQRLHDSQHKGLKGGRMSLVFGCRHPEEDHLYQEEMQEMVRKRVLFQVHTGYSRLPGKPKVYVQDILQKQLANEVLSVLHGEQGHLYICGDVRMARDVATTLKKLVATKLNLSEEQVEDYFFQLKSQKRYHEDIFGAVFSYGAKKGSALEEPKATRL
Further details: species or system Escherichia coli.

The target in test [7] is Mitogen-activated protein kinase 1 (Homo sapiens, UniProt P28482). Briefly: DRUGMATRIX: Protein Serine/Threonine Kinase, ERK2 enzyme inhibition (substrate: Myelin Basic Protein). As to conditions: Not Active = under 50% inhibition at 10 µM. The arrangement: species or system Escherichia coli.
Another test addresses Melanocortin receptor 3 (Homo sapiens, UniProt P41968). In kind it is cell membranes, Membrane. To be noted: hek293.
Test [8] is described as follows: DRUGMATRIX: Atrial Natriuretic Factor (ANF) radioligand binding (ligand: [125I] ANF (rat)). In kind it is cell membranes, Cavia porcellus, Dunkin-Hartley, Adrenal gland, Membrane. As to conditions: Not Active = under 50% inhibition at 10 µM.
The target in test [9] is T3, C-C chemokine receptor type 4 (Homo sapiens, UniProt P51679). Further: in other assays of this panel Not Active means under 50% inhibition at 10 µM.
T3 sequence (P51679 whole entry): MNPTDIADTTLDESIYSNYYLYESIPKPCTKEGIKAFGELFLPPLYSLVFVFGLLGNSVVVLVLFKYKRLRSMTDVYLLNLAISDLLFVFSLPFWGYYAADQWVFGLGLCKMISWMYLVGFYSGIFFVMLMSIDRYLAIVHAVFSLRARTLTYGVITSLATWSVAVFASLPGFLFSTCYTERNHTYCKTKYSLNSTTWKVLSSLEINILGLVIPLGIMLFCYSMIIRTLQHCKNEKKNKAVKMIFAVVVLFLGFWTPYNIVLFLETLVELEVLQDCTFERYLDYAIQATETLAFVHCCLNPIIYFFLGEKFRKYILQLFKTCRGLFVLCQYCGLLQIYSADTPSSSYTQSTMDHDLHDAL
Format: cell membranes, Membrane. As to conditions: chem-1.

Another test concerns the target Nitric oxide synthase 1 (Rattus norvegicus, UniProt P29476). In kind it is tissue-based, Cerebellum. Further: in other assays of this panel Not Active means under 50% inhibition at 10 µM.

Sigma non-opioid intracellular receptor 1, sequence (Q99720 whole entry): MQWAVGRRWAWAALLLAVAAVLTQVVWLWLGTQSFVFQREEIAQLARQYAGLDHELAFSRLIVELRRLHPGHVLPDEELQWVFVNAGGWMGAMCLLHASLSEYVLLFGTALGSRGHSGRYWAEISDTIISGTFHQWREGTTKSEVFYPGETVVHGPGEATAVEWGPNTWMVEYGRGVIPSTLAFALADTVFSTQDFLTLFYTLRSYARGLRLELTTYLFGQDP
Mitogen-activated protein kinase 1, sequence (P28482 whole entry): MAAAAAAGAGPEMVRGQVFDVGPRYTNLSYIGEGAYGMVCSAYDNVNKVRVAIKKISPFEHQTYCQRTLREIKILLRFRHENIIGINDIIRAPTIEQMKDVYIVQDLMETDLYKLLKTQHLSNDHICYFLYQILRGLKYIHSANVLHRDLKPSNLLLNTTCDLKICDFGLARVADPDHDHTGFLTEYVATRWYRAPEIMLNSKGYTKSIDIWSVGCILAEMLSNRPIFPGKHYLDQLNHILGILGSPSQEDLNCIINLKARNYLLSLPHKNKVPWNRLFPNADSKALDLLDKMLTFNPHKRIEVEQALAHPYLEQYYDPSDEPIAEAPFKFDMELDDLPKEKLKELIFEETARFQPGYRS
Nitric oxide synthase 1, sequence (P29476 whole entry): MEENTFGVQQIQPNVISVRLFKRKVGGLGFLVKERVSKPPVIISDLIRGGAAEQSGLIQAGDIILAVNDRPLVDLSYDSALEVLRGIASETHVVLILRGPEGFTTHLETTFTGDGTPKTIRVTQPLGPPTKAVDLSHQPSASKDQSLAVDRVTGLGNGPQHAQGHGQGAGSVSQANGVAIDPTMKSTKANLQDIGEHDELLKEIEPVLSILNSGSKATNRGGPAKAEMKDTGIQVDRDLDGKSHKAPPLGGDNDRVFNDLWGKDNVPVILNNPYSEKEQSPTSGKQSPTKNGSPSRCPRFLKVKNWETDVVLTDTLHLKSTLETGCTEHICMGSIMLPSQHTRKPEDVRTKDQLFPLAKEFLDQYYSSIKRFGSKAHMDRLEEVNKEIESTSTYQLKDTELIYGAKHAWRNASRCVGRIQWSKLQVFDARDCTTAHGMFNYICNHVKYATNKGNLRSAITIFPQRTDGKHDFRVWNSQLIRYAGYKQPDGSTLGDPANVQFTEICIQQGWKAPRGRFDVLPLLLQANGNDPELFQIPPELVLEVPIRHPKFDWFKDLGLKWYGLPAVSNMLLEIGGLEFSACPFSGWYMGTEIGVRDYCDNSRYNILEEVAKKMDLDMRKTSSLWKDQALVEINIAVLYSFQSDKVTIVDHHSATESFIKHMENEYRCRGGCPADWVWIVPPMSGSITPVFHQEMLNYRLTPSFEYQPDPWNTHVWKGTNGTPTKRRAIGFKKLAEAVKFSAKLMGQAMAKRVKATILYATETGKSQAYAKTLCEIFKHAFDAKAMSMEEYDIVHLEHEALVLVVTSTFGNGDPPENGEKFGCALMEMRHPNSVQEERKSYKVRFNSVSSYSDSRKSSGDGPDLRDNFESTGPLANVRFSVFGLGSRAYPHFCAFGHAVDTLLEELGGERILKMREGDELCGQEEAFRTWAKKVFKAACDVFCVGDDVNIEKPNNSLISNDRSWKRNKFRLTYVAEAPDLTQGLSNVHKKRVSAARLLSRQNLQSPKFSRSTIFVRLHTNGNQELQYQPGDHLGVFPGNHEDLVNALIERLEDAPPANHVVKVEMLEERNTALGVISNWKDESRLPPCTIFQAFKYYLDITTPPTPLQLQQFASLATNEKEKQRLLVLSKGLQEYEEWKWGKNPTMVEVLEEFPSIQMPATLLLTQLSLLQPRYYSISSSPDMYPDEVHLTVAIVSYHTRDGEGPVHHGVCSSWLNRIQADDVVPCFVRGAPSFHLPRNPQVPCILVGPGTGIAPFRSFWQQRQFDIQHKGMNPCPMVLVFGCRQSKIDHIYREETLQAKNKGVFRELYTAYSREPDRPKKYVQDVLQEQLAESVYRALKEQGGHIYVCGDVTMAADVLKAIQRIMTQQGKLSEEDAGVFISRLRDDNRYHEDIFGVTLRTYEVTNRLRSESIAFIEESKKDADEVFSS
Melanocortin receptor 3, sequence (P41968 whole entry): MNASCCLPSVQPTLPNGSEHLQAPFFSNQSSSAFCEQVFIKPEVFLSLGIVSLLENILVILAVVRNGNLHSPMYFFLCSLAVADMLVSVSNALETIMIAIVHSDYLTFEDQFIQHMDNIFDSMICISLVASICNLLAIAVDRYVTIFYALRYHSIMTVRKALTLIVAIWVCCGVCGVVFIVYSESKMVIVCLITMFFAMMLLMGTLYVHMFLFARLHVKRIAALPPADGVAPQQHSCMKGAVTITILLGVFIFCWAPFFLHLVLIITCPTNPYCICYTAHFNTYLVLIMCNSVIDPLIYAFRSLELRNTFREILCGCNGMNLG

For `CC(C)CC(N(C)C)C1(c2ccc(Cl)cc2)CCC1` (centres undefined) [SIBUTRAMINE], the IC50 result in test [1], in test [2], in test [3], in [4], in test [5] and in test [6] was “Not Active” each time. The IC50 result (in [7]; at Melanocortin receptor 3; in test [8]; in [9]; at Nitric oxide synthase 1) was “Not Active” throughout. For the same compound, the Ki result in test [2], in test [3], in test [4] and in [8] was “Not Active” each time.

Regarding `[H]/N=C(/N)N[C@H]1[C@H](O)[C@@H](O)[C@H](O[C@@H]2O[C@@H](C)[C@](O)(C=O)[C@H]2O[C@@H]2O[C@@H](CO)[C@H](O)[C@@H](O)[C@@H]2NC)[C@@H](N/C(N)=N\[H])[C@@H]1O` [STREPTOMYCIN], the IC50 result in test [1], in test [2], in test [3], in test [4], in [5] and in test [6] was “Not Active” throughout. Also, the IC50 result (in test [7]; against Melanocortin receptor 3; in test [8]; in [9]; against Nitric oxide synthase 1) was “Not Active” in each case. Further, the Ki entry in [2], in [3], in test [4] and in test [8] was “Not Active” in each case.

In the case of `COc1cc(NS(=O)(=O)c2ccc(N)cc2)nc(OC)n1` [SULFADIMETHOXINE], the IC50 entry in [1], in [2], in test [3], in [4], in test [5] and in test [6] was “Not Active” throughout. In addition, the IC50 entry (in [7]; against Melanocortin receptor 3; in [8]; in [9]; on Nitric oxide synthase 1) was “Not Active” in each case. The Ki result in test [2], in test [3], in [4] and in test [8] was “Not Active” in each case.

Take `Cc1cc(C)nc(NS(=O)(=O)c2ccc(N)cc2)n1` [SULFAMETHAZINE]: the IC50 entry in test [1], in test [2], in [3], in test [4], in test [5] and in [6] was “Not Active” in each case. For the same compound, the IC50 entry (in test [7]; against Melanocortin receptor 3; in test [8]; in test [9]; at Nitric oxide synthase 1) was “Not Active” throughout. In addition, the Ki result in test [2], in [3], in [4] and in test [8] was “Not Active” throughout.

Turning to `C[C@]1(Cn2ccnn2)[C@H](C(=O)O)N2C(=O)C[C@H]2S1(=O)=O` [TAZOBACTAM], the IC50 (usually the point on the concentration scale where inhibition reaches its midpoint) in [1] was “Not Active”; in test [2] it was “Not Active”; in [3], “Not Active”; in [4] (read-out: IC50) it was 299 nM; in [5], “Not Active”; in test [6] it was “Not Active”. For the same compound, the IC50 entry (in test [7]; at Melanocortin receptor 3; in test [8]; in [9]; on Nitric oxide synthase 1) was “Not Active” in each case. The Ki result in [2], in [3] and in test [8] was “Not Active” throughout.

As to `CN1C(C(=O)Nc2ccccn2)=C(O)c2sccc2S1(=O)=O` [TENOXICAM], the IC50 entry in [1], in test [2], in [3], in test [4], in test [5] and in [6] was “Not Active” throughout. The concentration for half-maximal inhibition (IC50) entry (in test [7]; on Melanocortin receptor 3; in [8]; in test [9]; at Nitric oxide synthase 1) was “Not Active” each time. The Ki result in [2], in test [3], in test [4] and in [8] was “Not Active” in each case.

As to `O=C1CCC(N2C(=O)c3ccccc3C2=O)C(=O)N1` (centres undefined) [THALIDOMIDE], the IC50 entry in test [1], in test [2], in test [3], in test [4], in test [5] and in test [6] was “Not Active” in each case. Also, the IC50 result (in test [7]; against Melanocortin receptor 3; in [8]; in [9]; against Nitric oxide synthase 1) was “Not Active” throughout. For the same compound, the Ki result in test [2], in test [3], in [4] and in [8] was “Not Active” throughout.

Consider `Cc1cccc(Nc2ccncc2S(=O)(=O)NC(=O)NC(C)C)c1` [TORSEMIDE], for which the IC50 entry in test [1], in test [2], in test [3], in test [4], in [5] and in test [6] was “Not Active” throughout. Also, the IC50 result (in test [7]; against Melanocortin receptor 3; in test [8]; in test [9]; against Nitric oxide synthase 1) was “Not Active” each time. In addition, the Ki entry in test [2], in test [3], in [4] and in test [8] was “Not Active” each time.

As for `CC(C)C[C@H](NC(=O)[C@@H](O)[C@H](N)Cc1ccccc1)C(=O)O` [UBENIMEX], the IC50 entry in test [1], in [2], in test [3], in test [4], in test [5] and in [6] was “Not Active” each time. Besides, the IC50 result (in [7]; against Melanocortin receptor 3; in test [8]; in test [9]; against Nitric oxide synthase 1) was “Not Active” each time. The Ki entry in [2], in test [3], in test [4] and in [8] was “Not Active” each time.
